Legend:
Fire ants = assay: Spray test on fire ants; type: in vivo, Red Imported species
Method: The time various compositions take to both knock down (KD) and kill (TM) various pests was determined. As a control, results were compared using sodium lauryl sulfate by itself, and with the various fatty acids.
The tests were conducted for a maximum observation time of 30 minutes, after which time, the test, and all observations, was stopped.
Protocol: Fire ants (Red Imported species) were directly sprayed while traveling on the ground. The average amount of material per area was calculated. The amount of material to kill the Fire Ant was determined.

Tick = Tick repellency on skin; type: in vivo; settings: on its own

In the case of `CCCCCCCCCCCCOS(=O)(=O)[O-].[Na+]` [sodium lauryl sulfate], the “Amount of aqueous 10% SLS mixture to kill the fire ant” value (Fire ants) is reported as “around 20 ml” and the Repellency to ticks (Tick) is reported as “not observed to be particularly repellent”.

— patent US8142801B2, “Pesticidal compositions and methods of use thereof” (EcoBlend, LLC, priority 2009, dated 2012)
